Consider five molecules from patent US8153767B2 (priority 2006, dated 2012).

The test system of assay [1] is mouse antiserum (aflatoxin B1 hapten immunogen).
In assay [2] the test system is monoclonal antibody useful for detecting all aflatoxins (JP-A 4-360695). Conditions: cited from earlier work.
The subject of assay [3] is rabbit antiserum (aflatoxin B1 hapten immunogen).
For assay [4], the system named is antibody AF-1 (JP-A 63-219394). Conditions: cited from earlier work.

Converted amounts (≈) assume the structure as drawn.

Consider `COc1cc2c(c3oc(=O)c4c(c13)CCC4=O)C1C=COC1O2` (stereo not drawn) [Aflatoxin B1], for which the concentration for half-maximal inhibition (IC50) in assay [1] and in assay [3] was 0.07 ng/mL (≈ 0.224 nM) in each case. Besides, the “crossreactivities in terms of IC50” value in assay [2] is 0.44 ng/mL.
With `COc1cc2c(c3oc(=O)c4c(c13)CCC4=O)C1CCOC1O2` (stereo not drawn) [Aflatoxin B2], the IC50 was found to be 1.5 ng/mL (≈ 4.77 nM) in assay [1] and 1.7 ng/mL (≈ 5.41 nM) in assay [3]. Moreover, in assay [2], the “crossreactivities in terms of IC50” value was 2.1 ng/mL.
As to `COc1cc2c(c3oc(=O)c4c(c13)CCOC4=O)C1C=COC1O2` (stereo not drawn) [Aflatoxin G1], the figures for the IC50 in assay [1] and in assay [3] were 0.6 ng/mL (≈ 1.83 nM) and 0.63 ng/mL (≈ 1.92 nM), respectively. Moreover, in assay [2], the “crossreactivities in terms of IC50” value is 2.4 ng/mL. Moreover, the “ability to bind to G1 relative to its ability to bind to B1 or B2” value in assay [4] is listed as 1/10.
Turning to `COc1cc2c(c3oc(=O)c4c(c13)CCOC4=O)C1CCOC1O2` (stereo not drawn) [Aflatoxin G2], the values for the IC50 in assay [1] and in assay [3] were 16 ng/mL (≈ 48.4 nM) and 18 ng/mL (≈ 54.5 nM), respectively. Also, the “crossreactivities in terms of IC50” value in assay [2] was 5.2 ng/mL.
`COc1cc2c(c3oc(=O)c4c(c13)CCC4=O)C1(O)C=COC1O2` (stereo not drawn) [Aflatoxin M1]: the half-inhibitory concentration (IC50) was 11 ng/mL (≈ 33.5 nM) in assay [1] and 14 ng/mL (≈ 42.6 nM) in assay [3].

The term IC50 denotes the concentration that inhibits the measured activity by half. Low readings indicate greater potency in that assay, high ones weaker potency in that assay.
